Measurements published in ChEMBL document CHEMBL4507257, “Data for DCP probe ABT-100” (2021).

Experiments:
[1] = molecular target: SNF-related serine/threonine-protein kinase (Homo sapiens) (UniProt Q9NRH2); details: Compound concentration 1000.0 nM
[2] = molecular target: Dual specificity protein kinase CLK1 (Homo sapiens) (UniProt P49759); details: Compound concentration 1000.0 nM
[3] = molecular target: Ribosomal protein S6 kinase alpha-5 (Homo sapiens) (UniProt O75582); details: Compound concentration 1000.0 nM
[4] = test system: Mast/stem cell growth factor receptor Kit (Homo sapiens), P10721 [V559D,V654A]; details: Compound concentration 1000.0 nM
Mast/stem cell growth factor receptor Kit (Homo sapiens), P10721 [V559D,V654A], sequence (P10721 whole entry V559D/V654A): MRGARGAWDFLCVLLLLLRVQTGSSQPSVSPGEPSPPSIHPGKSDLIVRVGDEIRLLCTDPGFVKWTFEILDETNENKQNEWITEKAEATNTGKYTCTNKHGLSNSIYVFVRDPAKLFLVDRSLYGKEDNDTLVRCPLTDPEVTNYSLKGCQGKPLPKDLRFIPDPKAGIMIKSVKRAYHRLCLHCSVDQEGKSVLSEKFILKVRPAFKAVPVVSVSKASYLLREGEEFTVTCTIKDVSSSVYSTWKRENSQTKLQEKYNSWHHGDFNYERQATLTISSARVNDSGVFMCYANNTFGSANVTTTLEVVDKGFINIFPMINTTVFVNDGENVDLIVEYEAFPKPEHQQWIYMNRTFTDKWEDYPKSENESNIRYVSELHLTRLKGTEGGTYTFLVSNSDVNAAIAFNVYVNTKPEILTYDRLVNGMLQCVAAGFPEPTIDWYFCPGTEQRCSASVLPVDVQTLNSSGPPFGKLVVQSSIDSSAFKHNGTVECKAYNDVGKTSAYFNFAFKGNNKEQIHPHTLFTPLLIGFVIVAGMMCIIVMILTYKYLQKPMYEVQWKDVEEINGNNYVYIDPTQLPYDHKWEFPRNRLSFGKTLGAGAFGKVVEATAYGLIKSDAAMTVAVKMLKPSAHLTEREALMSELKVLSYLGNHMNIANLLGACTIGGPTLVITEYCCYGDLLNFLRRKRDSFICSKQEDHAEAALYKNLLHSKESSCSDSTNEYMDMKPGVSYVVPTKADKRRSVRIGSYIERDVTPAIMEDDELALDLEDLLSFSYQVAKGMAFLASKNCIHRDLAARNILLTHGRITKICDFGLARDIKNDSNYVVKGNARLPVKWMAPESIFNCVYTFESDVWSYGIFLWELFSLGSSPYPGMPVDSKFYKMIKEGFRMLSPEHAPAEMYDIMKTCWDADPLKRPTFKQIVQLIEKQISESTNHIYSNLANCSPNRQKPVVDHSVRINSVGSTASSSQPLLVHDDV

[5] = molecular target: Mast/stem cell growth factor receptor Kit (Homo sapiens) (UniProt P10721); details: Compound concentration 1000.0 nM
[6] = molecular target: Serine/threonine-protein kinase TAO1 (Homo sapiens) (UniProt Q7L7X3); details: Compound concentration 1000.0 nM
[7] = molecular target: Serine/threonine-protein kinase MAK (Homo sapiens) (UniProt P20794); details: Compound concentration 1000.0 nM
Serine/threonine-protein kinase MAK (Homo sapiens), sequence (P20794 whole entry, canonical isoform): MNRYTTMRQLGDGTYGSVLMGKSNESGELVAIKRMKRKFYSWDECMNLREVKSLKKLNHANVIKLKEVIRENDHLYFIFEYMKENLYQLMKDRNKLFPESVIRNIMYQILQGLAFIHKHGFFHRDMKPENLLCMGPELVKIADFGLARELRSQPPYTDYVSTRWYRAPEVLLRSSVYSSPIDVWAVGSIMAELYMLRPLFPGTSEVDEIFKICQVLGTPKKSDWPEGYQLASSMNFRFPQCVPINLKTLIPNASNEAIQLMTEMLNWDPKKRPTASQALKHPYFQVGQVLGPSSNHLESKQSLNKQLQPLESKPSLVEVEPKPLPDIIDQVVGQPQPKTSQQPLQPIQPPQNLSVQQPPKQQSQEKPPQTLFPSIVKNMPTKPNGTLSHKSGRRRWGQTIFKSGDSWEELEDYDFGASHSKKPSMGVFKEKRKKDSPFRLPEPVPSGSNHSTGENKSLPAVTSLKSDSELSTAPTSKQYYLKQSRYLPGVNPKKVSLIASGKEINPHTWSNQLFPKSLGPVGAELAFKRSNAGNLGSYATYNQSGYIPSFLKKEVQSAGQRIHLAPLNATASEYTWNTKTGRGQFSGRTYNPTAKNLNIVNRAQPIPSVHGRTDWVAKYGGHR

[8] = molecular target: Phosphorylase b kinase gamma catalytic chain, skeletal muscle/heart isoform (Homo sapiens) (UniProt Q16816); details: Compound concentration 1000.0 nM
[9] = molecular target: Tyrosine-protein kinase Fgr (Homo sapiens) (UniProt P09769); details: Compound concentration 1000.0 nM
[10] = molecular target: Cyclin-dependent kinase 5 (Homo sapiens) (UniProt Q00535); details: Compound concentration 1000.0 nM
[11] = molecular target: Sodium-dependent dopamine transporter (Homo sapiens) (UniProt Q01959); details: Compound concentration 10.0 uM
[12] = molecular target: Serine/threonine-protein kinase WNK4 (Homo sapiens) (UniProt Q96J92); details: Compound concentration 1000.0 nM
[13] = molecular target: Maternal embryonic leucine zipper kinase (Homo sapiens) (UniProt Q14680); details: Compound concentration 1000.0 nM
[14] = molecular target: 1-phosphatidylinositol 3-phosphate 5-kinase (Homo sapiens) (UniProt Q9Y2I7); details: Compound concentration 1000.0 nM
[15] = molecular target: Ribosomal protein S6 kinase alpha-2 (Homo sapiens) (UniProt Q15349); details: Compound concentration 1000.0 nM
[16] = molecular target: MAP kinase-activated protein kinase 5 (Homo sapiens) (UniProt Q8IW41); details: Compound concentration 1000.0 nM
[17] = molecular target: Calcium/calmodulin-dependent protein kinase type II subunit delta (Homo sapiens) (UniProt Q13557); details: Compound concentration 1000.0 nM
[18] = test system: Tyrosine-protein kinase ABL1 (Homo sapiens), P00519 [H396P]; details: Compound concentration 1000.0 nM
[19] = molecular target: Bone morphogenetic protein receptor type-1A (Homo sapiens) (UniProt P36894); details: Compound concentration 1000.0 nM
Bone morphogenetic protein receptor type-1A (Homo sapiens), sequence (P36894 whole entry): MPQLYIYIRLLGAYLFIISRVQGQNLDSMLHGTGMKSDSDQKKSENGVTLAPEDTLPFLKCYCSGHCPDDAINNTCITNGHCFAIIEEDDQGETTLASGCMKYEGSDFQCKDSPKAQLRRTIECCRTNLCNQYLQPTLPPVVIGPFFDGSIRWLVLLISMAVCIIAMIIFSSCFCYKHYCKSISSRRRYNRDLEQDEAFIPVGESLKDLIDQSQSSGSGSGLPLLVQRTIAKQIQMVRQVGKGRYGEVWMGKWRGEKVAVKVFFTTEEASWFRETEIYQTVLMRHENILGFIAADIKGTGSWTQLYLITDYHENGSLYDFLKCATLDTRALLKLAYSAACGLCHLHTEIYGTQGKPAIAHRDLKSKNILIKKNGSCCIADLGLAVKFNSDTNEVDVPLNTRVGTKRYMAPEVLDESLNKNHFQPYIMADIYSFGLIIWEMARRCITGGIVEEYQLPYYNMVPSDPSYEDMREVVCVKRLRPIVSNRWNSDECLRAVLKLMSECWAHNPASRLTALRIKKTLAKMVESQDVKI

[20] = molecular target: Death-associated protein kinase 2 (Homo sapiens) (UniProt Q9UIK4); details: Compound concentration 1000.0 nM
Death-associated protein kinase 2 (Homo sapiens), sequence (Q9UIK4 whole entry, looked up): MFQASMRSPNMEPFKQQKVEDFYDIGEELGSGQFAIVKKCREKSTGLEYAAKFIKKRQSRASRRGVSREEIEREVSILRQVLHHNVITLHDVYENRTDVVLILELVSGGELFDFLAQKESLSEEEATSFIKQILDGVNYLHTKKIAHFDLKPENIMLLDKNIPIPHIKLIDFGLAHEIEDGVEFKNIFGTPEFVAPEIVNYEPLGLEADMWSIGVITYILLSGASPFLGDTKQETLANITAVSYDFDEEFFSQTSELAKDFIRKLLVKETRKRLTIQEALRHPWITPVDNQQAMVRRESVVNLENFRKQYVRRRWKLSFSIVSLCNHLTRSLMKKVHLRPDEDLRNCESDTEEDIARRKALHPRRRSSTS

[21] = molecular target: Serine/threonine-protein kinase pim-3 (Homo sapiens) (UniProt Q86V86); details: Compound concentration 1000.0 nM
[22] = molecular target: Mitogen-activated protein kinase kinase kinase 20 (Homo sapiens) (UniProt Q9NYL2); details: Compound concentration 1000.0 nM
[23] = molecular target: MAP kinase-activated protein kinase 2 (Homo sapiens) (UniProt P49137); details: Compound concentration 1000.0 nM
[24] = molecular target: Mitogen-activated protein kinase kinase kinase 6 (Homo sapiens) (UniProt O95382); details: Compound concentration 1000.0 nM
[25] = molecular target: Serine/threonine-protein kinase haspin (Homo sapiens) (UniProt Q8TF76); details: Compound concentration 1000.0 nM
[26] = molecular target: Leucine-rich repeat serine/threonine-protein kinase 2 (Homo sapiens) (UniProt Q5S007); details: Compound concentration 1000.0 nM
[27] = molecular target: Serine/threonine-protein kinase WNK2 (Homo sapiens) (UniProt Q9Y3S1); details: Compound concentration 1000.0 nM
[28] = molecular target: Homeodomain-interacting protein kinase 2 (Homo sapiens, UniProt Q9H2X6); details: Compound concentration 1000.0 nM
[29] = molecular target: Tyrosine-protein kinase JAK2 (Homo sapiens) (UniProt O60674); details: Compound concentration 1000.0 nM
[30] = molecular target: G protein-coupled receptor kinase 4 (Homo sapiens) (UniProt P32298); details: Compound concentration 1000.0 nM
[31] = molecular target: Ephrin type-B receptor 4 (Homo sapiens) (UniProt P54760); details: Compound concentration 1000.0 nM
[32] = molecular target: Angiopoietin-1 receptor (Homo sapiens) (UniProt Q02763); details: Compound concentration 1000.0 nM
Angiopoietin-1 receptor (Homo sapiens), sequence (Q02763 whole entry): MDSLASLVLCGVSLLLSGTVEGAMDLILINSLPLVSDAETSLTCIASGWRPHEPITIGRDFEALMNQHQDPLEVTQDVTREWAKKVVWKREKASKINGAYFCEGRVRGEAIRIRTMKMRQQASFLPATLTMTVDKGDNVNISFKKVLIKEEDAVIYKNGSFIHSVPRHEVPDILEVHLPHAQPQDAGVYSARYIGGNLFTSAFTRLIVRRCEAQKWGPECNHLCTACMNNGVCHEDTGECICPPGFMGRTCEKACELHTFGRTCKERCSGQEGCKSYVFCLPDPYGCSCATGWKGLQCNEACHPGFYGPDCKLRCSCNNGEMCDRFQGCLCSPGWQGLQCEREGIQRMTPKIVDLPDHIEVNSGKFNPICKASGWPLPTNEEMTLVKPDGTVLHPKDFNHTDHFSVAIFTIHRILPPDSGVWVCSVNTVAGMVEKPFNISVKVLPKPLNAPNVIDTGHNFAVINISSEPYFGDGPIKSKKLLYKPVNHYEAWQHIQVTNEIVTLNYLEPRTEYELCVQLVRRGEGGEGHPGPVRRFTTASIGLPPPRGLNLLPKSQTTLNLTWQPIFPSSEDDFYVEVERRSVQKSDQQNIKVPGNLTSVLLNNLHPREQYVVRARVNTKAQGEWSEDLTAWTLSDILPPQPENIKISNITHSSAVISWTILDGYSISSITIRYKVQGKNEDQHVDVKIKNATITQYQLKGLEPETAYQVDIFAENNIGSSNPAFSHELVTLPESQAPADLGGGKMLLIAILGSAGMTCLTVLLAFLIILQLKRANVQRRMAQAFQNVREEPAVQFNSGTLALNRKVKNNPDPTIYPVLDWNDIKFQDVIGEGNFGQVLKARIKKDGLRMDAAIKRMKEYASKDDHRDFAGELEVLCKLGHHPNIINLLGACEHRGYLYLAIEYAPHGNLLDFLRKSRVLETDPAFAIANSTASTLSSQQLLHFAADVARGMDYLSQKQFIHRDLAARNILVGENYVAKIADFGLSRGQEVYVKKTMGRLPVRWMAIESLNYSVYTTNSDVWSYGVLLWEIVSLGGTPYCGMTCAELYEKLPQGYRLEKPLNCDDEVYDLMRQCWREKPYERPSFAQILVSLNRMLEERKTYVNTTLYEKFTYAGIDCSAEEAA

[33] = molecular target: Myosin light chain kinase 2, skeletal/cardiac muscle (Homo sapiens) (UniProt Q9H1R3); details: Compound concentration 1000.0 nM
[34] = molecular target: Vascular endothelial growth factor receptor 2 (Homo sapiens) (UniProt P35968); details: Compound concentration 1000.0 nM
[35] = molecular target: SRSF protein kinase 1 (Homo sapiens) (UniProt Q96SB4); details: Compound concentration 1000.0 nM
SRSF protein kinase 1 (Homo sapiens), sequence (Q96SB4 whole entry): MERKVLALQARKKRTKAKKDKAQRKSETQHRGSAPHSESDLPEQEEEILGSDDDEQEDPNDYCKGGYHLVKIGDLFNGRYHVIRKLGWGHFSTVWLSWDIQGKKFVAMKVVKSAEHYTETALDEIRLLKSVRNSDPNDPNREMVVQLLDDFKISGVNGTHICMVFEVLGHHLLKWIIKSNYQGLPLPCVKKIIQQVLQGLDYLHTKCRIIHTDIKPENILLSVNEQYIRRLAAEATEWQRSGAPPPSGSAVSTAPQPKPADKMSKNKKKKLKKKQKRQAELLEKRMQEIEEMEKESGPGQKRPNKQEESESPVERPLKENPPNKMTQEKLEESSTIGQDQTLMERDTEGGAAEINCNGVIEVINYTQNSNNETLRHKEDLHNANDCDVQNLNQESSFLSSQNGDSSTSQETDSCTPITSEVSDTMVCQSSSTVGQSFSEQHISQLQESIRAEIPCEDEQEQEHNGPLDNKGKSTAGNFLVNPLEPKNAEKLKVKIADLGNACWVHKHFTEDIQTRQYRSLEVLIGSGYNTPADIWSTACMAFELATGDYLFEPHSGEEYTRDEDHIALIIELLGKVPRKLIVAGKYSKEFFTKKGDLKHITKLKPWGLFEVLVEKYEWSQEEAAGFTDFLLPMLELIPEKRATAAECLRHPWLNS

[36] = molecular target: Serine/threonine-protein kinase Nek5 (Homo sapiens) (UniProt Q6P3R8); details: Compound concentration 1000.0 nM
[37] = molecular target: Rhodopsin kinase GRK1 (Homo sapiens) (UniProt Q15835); details: Compound concentration 1000.0 nM
[38] = molecular target: Tyrosine-protein kinase FRK (Homo sapiens) (UniProt P42685); details: Compound concentration 1000.0 nM
[39] = molecular target: Mitogen-activated protein kinase kinase kinase 4 (Homo sapiens) (UniProt Q9Y6R4); details: Compound concentration 1000.0 nM
[40] = test system: Phosphatidylinositol 4,5-bisphosphate 3-kinase catalytic subunit alpha isoform (Homo sapiens), P42336 [H1047Y]; details: Compound concentration 1000.0 nM
[41] = molecular target: Rhodopsin kinase GRK7 (Homo sapiens) (UniProt Q8WTQ7); details: Compound concentration 1000.0 nM
[42] = test system: Tyrosine-protein kinase ABL1 (Homo sapiens), P00519 [Q252H]; details: Compound concentration 1000.0 nM
[43] = molecular target: SRSF protein kinase 3 (Homo sapiens) (UniProt Q9UPE1); details: Compound concentration 1000.0 nM
[44] = molecular target: Casein kinase I isoform epsilon (Homo sapiens) (UniProt P49674); details: Compound concentration 1000.0 nM
[45] = molecular target: Homeodomain-interacting protein kinase 1 (Homo sapiens) (UniProt Q86Z02); details: Compound concentration 1000.0 nM

SNF-related serine/threonine-protein kinase (Homo sapiens), sequence (Q9NRH2 whole entry): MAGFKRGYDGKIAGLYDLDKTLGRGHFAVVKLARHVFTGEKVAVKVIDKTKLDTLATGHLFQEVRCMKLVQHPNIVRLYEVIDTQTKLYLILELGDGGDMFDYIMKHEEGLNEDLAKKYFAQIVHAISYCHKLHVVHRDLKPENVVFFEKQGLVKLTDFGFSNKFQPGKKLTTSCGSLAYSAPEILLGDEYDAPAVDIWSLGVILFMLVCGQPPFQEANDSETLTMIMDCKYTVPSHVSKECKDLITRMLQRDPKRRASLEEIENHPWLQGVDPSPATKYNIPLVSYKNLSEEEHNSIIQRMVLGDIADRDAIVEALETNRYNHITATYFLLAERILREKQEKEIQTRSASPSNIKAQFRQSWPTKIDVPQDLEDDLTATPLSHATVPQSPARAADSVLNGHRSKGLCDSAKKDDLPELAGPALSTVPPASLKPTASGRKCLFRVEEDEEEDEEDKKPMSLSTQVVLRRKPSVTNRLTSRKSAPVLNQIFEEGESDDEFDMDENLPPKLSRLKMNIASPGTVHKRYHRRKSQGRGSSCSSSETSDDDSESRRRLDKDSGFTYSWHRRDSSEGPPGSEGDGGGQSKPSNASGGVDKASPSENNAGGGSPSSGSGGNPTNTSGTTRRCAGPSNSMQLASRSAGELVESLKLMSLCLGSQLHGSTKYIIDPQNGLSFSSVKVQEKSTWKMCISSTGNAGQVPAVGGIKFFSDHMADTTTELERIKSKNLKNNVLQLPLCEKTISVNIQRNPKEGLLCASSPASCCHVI

Cn1cncc1[C@](O)(COc1ccc(C#N)cc1-c1ccc(OC(F)(F)F)cc1)c1ccc(C#N)cc1 [ABT-100]
inactive: residual activity [1] 100% | residual activity [2] 70% | residual activity [3] 76% | residual activity [4] 100% | residual activity [5] 100% | residual activity [6] 87% | residual activity [7] 100% | residual activity [8] 63% | residual activity [9] 100% | residual activity [10] 92% | inhibition [11] 9.99% | residual activity [12] 100% | residual activity [13] 74% | residual activity [14] 100% | residual activity [15] 85% | residual activity [16] 90% | residual activity [17] 100% | residual activity [18] 91% | residual activity [19] 91% | residual activity [20] 82% | residual activity [21] 89% | residual activity [22] 100% | residual activity [23] 63% | residual activity [24] 76% | residual activity [25] 100% | residual activity [26] 100% | residual activity [27] 67% | residual activity [28] 100% | residual activity [29] 91% | residual activity [30] 62% | residual activity [31] 98% | residual activity [32] 92% | residual activity [33] 78% | residual activity [34] 96% | residual activity [35] 70% | residual activity [36] 72% | residual activity [37] 95% | residual activity [38] 100% | residual activity [39] 90% | residual activity [40] 77% | residual activity [41] 100% | residual activity [42] 100% | residual activity [43] 53% | residual activity [44] 77% | residual activity [45] 100%

Cn1cncc1[C@@](O)(COc1ccc(C#N)cc1-c1ccc(OC(F)(F)F)cc1)c1ccc(C#N)cc1 [A-108]
inactive: residual activity [1] 87% | residual activity [2] 100% | residual activity [3] 81% | residual activity [4] 100% | residual activity [5] 98% | residual activity [6] 100% | residual activity [7] 99% | residual activity [8] 95% | residual activity [9] 100% | residual activity [10] 96% | inhibition [11] 6.63% | residual activity [12] 85% | residual activity [13] 79% | residual activity [14] 100% | residual activity [15] 98% | residual activity [16] 100% | residual activity [17] 95% | residual activity [18] 88% | residual activity [19] 100% | residual activity [20] 97% | residual activity [21] 100% | residual activity [22] 85% | residual activity [23] 61% | residual activity [24] 100% | residual activity [25] 100% | residual activity [26] 100% | residual activity [27] 84% | residual activity [28] 100% | residual activity [29] 65% | residual activity [30] 56% | residual activity [31] 100% | residual activity [32] 92% | residual activity [33] 100% | residual activity [34] 100% | residual activity [35] 97% | residual activity [36] 98% | residual activity [37] 100% | residual activity [38] 100% | residual activity [39] 80% | residual activity [40] 100% | residual activity [41] 81% | residual activity [42] 84% | residual activity [43] 56% | residual activity [44] 100% | residual activity [45] 79%
